Data published in patent publication US20240082238A1, “COMPOSITIONS AND METHODS FOR TREATING CANCER” (UNIVERSITY OF IOWA RESEARCH FOUNDATION, priority 2021, published 2024).

Assays:
cancer cell lines = assay: Cytotoxicity (MTS), CIP2b with checkpoint inhibitors; assay type: cell-based; conditions: AZD7762 50 and 75 nM; MK1775 150 and 250 nM
Procedure: (§1) Cytotoxicity assay. Hec50co cells were seeded at 1500 cells per well in 96-well plates for 24 h in a complete medium. Later, the medium was removed and PTX, CIP2b, or CIP (all dissolved in DMSO and diluted in complete medium) were added to cells as either monotherapies or in combinations, and the plates were incubated for 72 hours. Then, the complete medium was removed and MTS reagent in the complete medium was added to wells, and the plates were incubated for 1-4 hours according to the manufacturer's protocol. Finally, the absorbance was recorded at 490 nm using a Spectra Max plus 384 Microplate Spectrophotometer (Molecular Devices, Sunnyvale, CA). Percentage cell viability was expressed as the average absorbance of the test group relative to that of the control group (untreated cells). The concentration that inhibits proliferation of 50% of cells compared to control (IC50) was calculated using GraphPad Prism (La Jolla, CA). Synergism was detected following the Chou-Talalay method (CI<1 indicates synergism) (Chou T C. Cancer research. 2010; 70(2):440-6, doi: 10.1158/0008-5472.CAN-09-1947) using CompuSyn software (Ver. 1.0).
Cytotoxicity was evaluated using the MTS assay described above.

human Topo I = biological target: T1, human Topo I (Homo sapiens, UniProt P11387); assay: Topoisomerase I inhibition assay (plasmid-based); assay type: biochemical; conditions: drug final concentration 100 μM
T1 construct: purchased TopoGEN Inc. TG1015-1A
T1 sequence (P11387 1-765): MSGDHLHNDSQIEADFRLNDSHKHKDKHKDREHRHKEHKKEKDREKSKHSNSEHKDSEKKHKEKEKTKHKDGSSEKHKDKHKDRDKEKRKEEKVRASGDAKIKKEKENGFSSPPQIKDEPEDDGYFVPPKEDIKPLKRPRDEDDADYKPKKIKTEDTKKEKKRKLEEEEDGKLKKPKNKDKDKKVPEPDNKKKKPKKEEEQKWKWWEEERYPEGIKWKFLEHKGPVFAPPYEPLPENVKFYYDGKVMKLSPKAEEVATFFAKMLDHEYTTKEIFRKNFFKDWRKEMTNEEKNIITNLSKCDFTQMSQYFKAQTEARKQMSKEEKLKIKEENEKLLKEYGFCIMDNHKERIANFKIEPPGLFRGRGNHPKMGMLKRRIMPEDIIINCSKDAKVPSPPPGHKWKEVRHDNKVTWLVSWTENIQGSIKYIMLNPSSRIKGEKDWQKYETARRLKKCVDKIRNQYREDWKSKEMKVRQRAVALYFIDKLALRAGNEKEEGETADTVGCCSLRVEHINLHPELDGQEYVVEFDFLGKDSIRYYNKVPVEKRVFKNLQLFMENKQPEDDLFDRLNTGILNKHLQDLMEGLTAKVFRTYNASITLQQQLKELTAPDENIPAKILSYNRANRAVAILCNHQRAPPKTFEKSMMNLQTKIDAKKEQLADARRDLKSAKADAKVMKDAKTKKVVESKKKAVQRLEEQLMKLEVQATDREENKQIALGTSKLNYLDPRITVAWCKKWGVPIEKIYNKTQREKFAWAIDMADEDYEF
Procedure: Topoisomerase I inhibition assay. A plasmid-based Topo I assay (Cat. No. TG1015-1A, TopoGEN Inc., Buena Vista, CO) was performed according to the manufacturer's instructions. Briefly, 1 μL of the test compounds (PTX, CIP, CIP2b, or CAM) at a concentration of 2 mM, was mixed with 2 μL of the reaction buffer (10× tris-glycine-SDS), and deionized water was added to make 18 μL solution. This was followed by adding 1 μL of supercoiled DNA (SC DNA) and 1 μL of human Topo I (10 U/μL) (drug final concentration was 100 μM). Also, SC DNA±Topo I was used as a control (i.e., not containing drugs). In addition, relaxed DNA was added as another control in this assay. Samples were incubated on a heating block (Isotemp 125 D Digital Heat Block, ThermoFisher Scientific) set at 37° C. for 30 minutes. Then, the reaction was stopped by adding a 5× stop buffer. Samples were then loaded directly into the wells of a 1% agarose gel (Research Products International, Mount Prospect, IL). The gel was run at 150 V until the dye front had traveled approximately 5 cm (run time was approximately 2 hours). The gel was then stained with 1 μg/mL ethidium bromide in deionized water for 15 minutes, and this was followed by de-staining (washing) with deionized water for 30 min before imaging. The image was then taken using an Invitrogen iBright CL 1500 Imaging System (ThermoFisher Scientific). The intensity of the final bands in the gel was quantified using ImageJ, and the results are expressed as the percentage of Topo I inhibition.

[1] = system: advanced pancreatic ductal adenocarcinoma (PDAC); conditions: patients with advanced PDAC; cited from earlier work
human Topo IIα = biological target: T2, human Topo IIα (Homo sapiens, UniProt P11388); assay: Topoisomerase II inhibition assay (plasmid-based); assay type: biochemical; conditions: drug final concentration 100 μM; read-out: percentage of Topo II inhibition
T2 construct: purchased TopoGEN Inc. TG1001-1A
Procedure: Topoisomerase II inhibition assay. A plasmid-based Topo II assay (Cat. No. TG1001-1A, TopoGEN Inc., Buena Vista, CO) was performed according to the manufacturer's instructions. In this experiment, 1 μL of tested compounds (PTX, CIP, CIP2b, ETO) at a concentration of 2 mM was mixed with 4 μL of the reaction buffer (mixture of buffer A (0.5 M Tris-HCl (pH 8), 1.50 M NaCl, 100 mM MgCl2, 5 mM Dithiothreitol, 300 μg BSA/mL) and buffer B (10× ATP Buffer), and deionized water was added to make 18 μL solution. This was followed by adding 1 μL of catenated DNA and 1 μL of human Topo IIα (8 U/μL) (drug final concentration was 100 μM). Additionally, decatenated DNA (De-CT DNA) and catenated DNA (CT DNA)±Topo II were used as a control (i.e., not containing drugs). Moreover, relaxed DNA was added as another control in this assay. Similar to Topo I assay, samples were then incubated on a heating block set at 37° C. for 30 minutes. Then, the reaction was stopped by the addition of a 5× stop buffer. Samples were then loaded directly into the wells of a 1% agarose gel containing 1 μg/mL ethidium bromide. The gel was run at 150 V until the dye front had traveled approximately 5 cm (run time was approximately 2 h). The gel was then washed with deionized water for 30 minutes before imaging. The image was taken using an Invitrogen iBright CL1500 Imaging System. The intensity of the final bands in the gel was quantified using ImageJ, and the results are expressed as the percentage of Topo II inhibition.

Hec50co cells = assay: Cytotoxicity assay (MTS), Hec50co cells; assay type: cell-based, human; conditions: 10 μM CIP added to PTX, 72 h
Procedure: as §1, with “1.0). […]” for “1.0).”

T2 sequence (P11388 whole entry): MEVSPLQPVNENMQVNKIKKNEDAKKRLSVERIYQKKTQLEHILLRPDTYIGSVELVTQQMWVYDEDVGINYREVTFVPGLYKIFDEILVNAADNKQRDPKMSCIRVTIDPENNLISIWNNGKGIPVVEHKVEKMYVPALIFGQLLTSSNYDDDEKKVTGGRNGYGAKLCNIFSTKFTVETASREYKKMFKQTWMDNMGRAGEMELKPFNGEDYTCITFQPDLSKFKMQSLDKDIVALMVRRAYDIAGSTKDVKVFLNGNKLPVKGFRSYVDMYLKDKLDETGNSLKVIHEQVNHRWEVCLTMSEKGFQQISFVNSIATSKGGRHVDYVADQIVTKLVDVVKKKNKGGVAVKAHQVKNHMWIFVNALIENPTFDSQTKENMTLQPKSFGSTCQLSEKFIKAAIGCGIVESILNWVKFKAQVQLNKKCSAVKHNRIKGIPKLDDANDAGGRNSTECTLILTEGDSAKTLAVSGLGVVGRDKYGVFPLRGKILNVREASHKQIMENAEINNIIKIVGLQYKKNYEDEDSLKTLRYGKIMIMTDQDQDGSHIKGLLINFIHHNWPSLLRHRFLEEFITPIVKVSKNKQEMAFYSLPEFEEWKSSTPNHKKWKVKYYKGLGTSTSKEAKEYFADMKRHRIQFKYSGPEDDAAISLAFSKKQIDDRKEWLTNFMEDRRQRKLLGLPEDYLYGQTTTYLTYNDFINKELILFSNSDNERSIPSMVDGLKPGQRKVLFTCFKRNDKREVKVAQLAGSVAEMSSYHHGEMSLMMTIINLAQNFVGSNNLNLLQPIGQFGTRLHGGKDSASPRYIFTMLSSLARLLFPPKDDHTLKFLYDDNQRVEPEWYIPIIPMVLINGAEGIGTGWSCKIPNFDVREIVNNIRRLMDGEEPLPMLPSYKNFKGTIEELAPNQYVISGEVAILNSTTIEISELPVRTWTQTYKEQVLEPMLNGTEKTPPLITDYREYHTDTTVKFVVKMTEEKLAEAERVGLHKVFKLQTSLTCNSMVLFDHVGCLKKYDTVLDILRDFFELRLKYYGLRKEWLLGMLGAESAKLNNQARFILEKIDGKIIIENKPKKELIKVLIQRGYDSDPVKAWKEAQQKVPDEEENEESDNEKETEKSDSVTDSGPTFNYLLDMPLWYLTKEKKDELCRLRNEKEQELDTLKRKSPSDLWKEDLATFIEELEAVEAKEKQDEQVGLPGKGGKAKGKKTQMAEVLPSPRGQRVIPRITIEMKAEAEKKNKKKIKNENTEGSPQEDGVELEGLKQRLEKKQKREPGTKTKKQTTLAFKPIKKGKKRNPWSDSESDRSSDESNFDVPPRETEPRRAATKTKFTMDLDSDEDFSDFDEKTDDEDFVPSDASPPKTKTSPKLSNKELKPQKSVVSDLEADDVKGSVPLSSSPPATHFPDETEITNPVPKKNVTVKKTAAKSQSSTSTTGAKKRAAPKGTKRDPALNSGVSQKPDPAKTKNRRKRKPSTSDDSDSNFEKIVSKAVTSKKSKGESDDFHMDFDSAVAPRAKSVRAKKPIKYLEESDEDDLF

Row | Structure (SMILES) | potentiation or synergism in combination with CIP2b (cancer cell lines) | Topo I inhibitory activity (gel) (human Topo I) | inhibition at 100 µM (human Topo IIα) | also measured
1 | NC(=O)Nc1cc(-c2cccc(F)c2)sc1C(=O)N[C@H]1CCCNC1 [AZD7762] | did not show any noticeable potentiation or synergism |  |  | 
2 | CC[C@@]1(O)C(=O)OCc2c1cc1n(c2=O)Cc2cc3ccccc3nc2-1 [CAM, camptothecin] |  | potent inhibitor of Topo I |  | 
3 | Nc1ccn([C@@H]2O[C@H](CO)[C@@H](O)C2(F)F)c(=O)n1 [gemcitabine] |  |  |  | median survival [1]: 6.7-6.8 months
4 | O=C(O)c1cn(C2CC2)c2cc(N3CCNCC3)c(F)cc2c1=O [CIP, ciprofloxacin] |  | neither PTX nor CIP did inhibit Topo I | 62% | survival curve of PTX with added compound vs PTX alone (Hec50co cells): superimposed
5 | COc1cc([C@@H]2c3cc4c(cc3[C@@H](O[C@@H]3O[C@@H]5CO[C@@H](C)O[C@H]5[C@H](O)[C@H]3O)[C@H]3COC(=O)[C@H]23)OCO4)cc(OC)c1O [ETO, etoposide] |  |  | ~96% | 
6 | C=CCn1c(=O)c2cnc(Nc3ccc(N4CCN(C)CC4)cc3)nc2n1-c1cccc(C(C)(C)O)n1 [MK1775, adavosertib] | did not show any noticeable potentiation or synergism |  |  | 
